Measurements published in patent US12054494B2, “Compound with anticancer activity” (KYOWA KIRIN CO., LTD., priority 2018, dated 2024).

Tested on: MYC mRNA expression in SU-DHL-4 cells
Test: Suppressive effect on MYC mRNA expression (qRT-PCR)
Assay type: cell-based
Details: test compound 100 nmol/L, 6 hours
Procedure: Suppressive Effect on MYC mRNA Expression
SU-DHL-4 cells were cultured at 37° C. using a carbon dioxide gas incubator (95% air, 5% CO2) in RPMI1640 medium in which FBS in an amount to give a final concentration of 10 vol % and PS in an amount to give a final concentration of 1 vol % were added. The cells were passaged twice a week at a volume of 20-40 mL so as to maintain a cell concentration of 1×10^6 cells/mL or less.
The cultured SU-DHL-4 cells were seeded at 6×10^5 cells/well in a transparent 6-well plate (Code No. 140675, Thermo Fisher Scientific). After seeding, the cells were precultured at 37° C. in a carbon dioxide gas incubator for 18 to 25 hours. Next, a 0.1 mmol/L DMSO solution of the test compound was prepared, diluted so that the concentration will be 200 times the final concentration in the RPMI1640 medium containing the above FBS and PS, and 1/200 volume of the diluted solution was added to each well. At this time, the final concentration of DMSO was adjusted to be 0.1 vol %. After adding the test compound, the cells were cultured at 37° C. in a carbon dioxide gas incubator for 6 hours.
Then, the cells were collected by centrifugation and used for extraction of mRNA. mRNA extraction from cells was performed using Maxwell® 16 LEV simplyRNA Purification Kits (Code No. AS1270, Promega). The mRNA recovery protocol was performed according to the manufacturer's recommended protocol attached to the kit.
0.001 mg of the recovered mRNA was converted to cDNA by SuperScript IV VILO Master Mix with ezDNase Enzyme (Code No. 11766050, Thermo Fisher Scientific). The cDNA conversion was performed, according to the manufacturer's recommended protocol attached to the kit, in 0.020 mL of the reaction solution, and GeneAmp® PCR System 9700 (Applied Biosystems) was used. The cDNA-converted sample was diluted 10-fold by adding 0.180 mL of RNase Free Water (Code No. 10977-023, Thermo Fisher Scientific) and used for quantitative real-time polymerase chain reaction (qRT-PCR). For the calibration curve of qRT-PCR, 0.08 mL of RNase Free Water was added to a cDNA sample using DMSO as a test compound for 5-fold dilution. Further, two 5-fold dilutions were prepared stepwise, and these three samples were used as the calibration curve samples.
The following reagents were used for qRT-PCR: TaqMan Gene Expression Assays, Inventoried (Primer probe: Code No. 4331182, Thermo Fisher Scientific, Assay ID: (i) MYC: Hs00153408_m1, (ii) ACTB: Hs01060665_g1, (iii) GAPDH: Hs04420697_g1, (iv) HPRT1: Hs02800695_m1); 2X TaqManR Fast Universal PCR Master Mix, no AmpEraseR UNG (Master Mix: Code No. 4367846, Thermo Fisher Scientific).
Primer probe (0.001 mL), Master Mix (0.010 mL), water (0.004 mL) and the diluted cDNA sample (0.005 mL) were mixed, and qRT-PCR analysis was performed. For qRT-PCR analysis, QuantStudio 7 Flex (Thermo Fisher Scientific) or 7500 Fast Real-Time PCR (Applied Biosystems) was used to measure in Fast mode and analyze. The expression level of the MYC gene was determined by quantifying ACTB, GAPDH, and HPRT1 as housekeeping genes and correcting by the following formula to calculate the suppression rate of (%) of MYC mRNA expression when the test compound was allowed to act at a concentration of 100 nmol/L. Corrected MYC expression=A/B • A: MYC expression level • B: Geometric mean of expression levels of ACTB, GAPDH and HPRT1
Using the corrected values, the suppression rate of MYC expression for the wells to which […] was calculated by the following formula. Suppression rate of MYC expression (%)=100−C/D×100 • C: Corrected MYC expression level in a well containing test compound • D: Corrected MYC expression level in a well to which test compound was not added

Row | Compound | Suppression rate of MYC mRNA expression [%]
1 | CCC(=O)N1c2ccccc2[C@H](Nc2ccc(NC(=O)C#CCNC(=O)C3CCC(N[C@@H]4C[C@H](C)N(C(=O)CC)c5ccccc54)CC3)cc2)C[C@@H]1C (relative stereo) [Compound 8g, (1R,4r)-4-(((2S*,4R*)-2-Methyl-1-propionyl-1,2,3,4-tetrahydroquinolin-4-yl)amino)-N-(4-((4-(((2S,4R)-2-methyl-1-propionyl-1,2,3,4-tetrahydroquinolin-4-yl)amino)phenyl)amino)-4-oxobut-2-yn-1-yl)cyclohexane-1-carboxamide] | 96.6
2 | CCC(=O)N1c2ccccc2[C@H](N[C@H]2CC[C@H](NC(=O)C#CCNC(=O)[C@H]3CC[C@H](N[C@@H]4C[C@H](C)N(C(=O)CC)c5ccccc54)CC3)CC2)C[C@@H]1C (relative stereo) [Compound 9d, (1R,4R)-4-(((2S*,4R*)-2-Methyl-1-propionyl-1,2,3,4-tetrahydroquinolin-4-yl)amino)-N-(4-(((1R,4R)-4-(((2S,4R)-2-methyl-1-propionyl-1,2,3,4-tetrahydroquinolin-4-yl)amino)cyclohexyl)amino)-4-oxobut-2-yn-1-yl)cyclohexane-1-carboxamide] | 98.0
3 | CCC(=O)N1c2ccccc2[C@H](NCCCCC(=O)NCc2cn(-c3ccc(N[C@@H]4C[C@H](C)N(C(=O)CC)c5ccccc54)cc3)nn2)C[C@@H]1C (relative stereo) [Compound 12f, 5-(((2S*,4R*)-2-Methyl-1-propionyl-1,2,3,4-tetrahydroquinolin-4-yl)amino)-N-((1-(4-(((2S,4R)-2-methyl-1-propionyl-1,2,3,4-tetrahydroquinolin-4-yl)amino)phenyl)-1H-1,2,3-triazol-4-yl)methyl)pentane amide] | 97.9

Tested on: SU-DHL-4 cells
Test: Inhibitory effect on cell viability (Cell Counting Kit-8)
Assay type: cell-based
Details: Homo sapiens, 72 hours culture with test compound, concentration showing 90% inhibition rate of cell viability
How it was run: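 IC90 corresponds to 90% loss of viability, measured as CCK-8 absorbance at 450 nm (2-3 h colour development). Compounds in 9 dilutions (0.1% DMSO) were applied for 72 h at 37° C to SU-DHL-4 lymphoma cells seeded at 2000/well in RPMI1640/10% FBS after 18-25 h preculture.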

Row | IC90 [nM] | Compound
4 | 0.05 | CCC(=O)N1c2ccccc2[C@H](Nc2ccc(-n3cc(CNC(=O)c4ccc(C5=NCc6nnc(C)n6-c6sc(C)c(C)c65)cc4)nn3)cc2)C[C@@H]1C [Compound 14n, N-((1-(4-(((2S,4R)-2-Methyl-1-propionyl-1,2,3,4-tetrahydroquinolin-4-yl)amino)phenyl)-1H-1,2,3-triazol-4-yl)methyl)-4-(2,3,9-trimethyl-6H-thieno[3,2-f][1,2,4]triazolo[4,3-a][1,4]diazepin-4-yl)benzamide]
5 | 30.9 | Cc1sc2c(c1C)C(c1ccc(C(=O)NCC(=O)CNC(=O)c3ccc(C4=NCc5nnc(C)n5-c5sc(C)c(C)c54)cc3)cc1)=NCc1nnc(C)n1-2 [Compound 14o, N,N′-(2-Oxopropane-1,3-diyl)bis(4-(2,3,9-trimethyl-6H-thieno[3,2-f][1,2,4]triazolo[4,3-a][1,4]diazepin-4-yl)benzamide)]
6 | 1.27 | Cc1sc2c(c1C)C(c1ccc(C(=O)N3CCC(NC(=O)c4ccc(C5=N[C@@H](CC(=O)OC(C)(C)C)c6nnc(C)n6-c6sc(C)c(C)c65)cc4)CC3)cc1)=NCc1nnc(C)n1-2 [Compound 14p, tert-Butyl (S)-2-(2,3,9-trimethyl-4-(4-((1-(4-(2,3,9-trimethyl-6H-thieno[3,2-f][1,2,4]triazolo[4,3-a][1,4]diazepin-4-yl)benzoyl)piperidin-4-yl)carbamoyl)phenyl)-6H-thieno[3,2-f][1,2,4]triazolo[4,3-a][1,4]diazepin-6-yl)acetate]
7 | 0.17 | CCC(=O)N1c2ccccc2[C@H](Nc2ccc(C(=O)NCc3cn(-c4ccc(C5=NCc6nnc(C)n6-c6sc(C)c(C)c65)cc4)nn3)cc2)C[C@@H]1C [Compound 14q, 4-(((2S,4R)-2-Methyl-1-propionyl-1,2,3,4-tetrahydroquinolin-4-yl)amino)-N-((1-(4-(2,3,9-trimethyl-6H-thieno[3,2-f][1,2,4]triazolo[4,3-a][1,4]diazepin-4-yl)phenyl)-1H-1,2,3-triazol-4-yl)methyl)benzamide]
8 | 1.47 | CCC(=O)N1c2ccccc2[C@H](Nc2ccc(-c3cn4c(n3)CN(C(=O)c3ccc(C5=NCc6nnc(C)n6-c6sc(C)c(C)c65)cc3)CC4)cc2)C[C@@H]1C [Compound 14r, 1-((2S,4R)-2-Methyl-4-((4-(7-(4-(2,3,9-trimethyl-6H-thieno[3,2-f][1,2,4]triazolo[4,3-a][1,4]diazepin-4-yl)benzoyl)-5,6,7,8-tetrahydroimidazo[1,2-a]pyrazin-2-yl)phenyl)amino)-3,4-dihydroquinolin-1(2H)-yl)propan-1-one]
9 | 1.07 | CCC(=O)N1c2ccccc2[C@H](Nc2ccc(-c3nnc(CNC(=O)c4ccc(Cn5c(C(=O)OCCN(C)C)cc6c5CCCC6=O)cc4)o3)cc2)C[C@@H]1C [Compound 15b, 2-(Dimethylamino)ethyl 1-(4-(((5-(4-(((2S,4R)-2-methyl-1-propionyl-1,2,3,4-tetrahydroquinolin-4-yl)amino)phenyl)-1,3,4-oxadiazol-2-yl)methyl)carbamoyl)benzyl)-4-oxo-4,5,6,7-tetrahydro-1H-indole-2-carboxylate]
10 | 0.3 | CCC(=O)N1c2ccccc2[C@H](Nc2ccc(-n3cc(CCNC(=O)c4ccc(Cn5c(C(=O)OCCN(C)C)cc6c5CCCC6=O)cc4)nn3)cc2)C[C@@H]1C [Compound 15c, 2-(Dimethylamino)ethyl 1-(4-((2-(1-(4-(((2S,4R)-2-methyl-1-propionyl-1,2,3,4-tetrahydroquinolin-4-yl)amino)phenyl)-1H-1,2,3-triazol-4-yl)ethyl)carbamoyl)benzyl)-4-oxo-4,5,6,7-tetrahydro-1H-indole-2-carboxylate]
11 | 0.16 | CCC(=O)N1c2ccccc2[C@H](Nc2ccc(-c3cnn(CCNC(=O)c4ccc(Cn5c(C(=O)OCCN(C)C)cc6c5CCCC6=O)cc4)c3)cc2)C[C@@H]1C [Compound 15d, 2-(Dimethylamino)ethyl 1-(4-((2-(4-(4-(((2S,4R)-2-methyl-1-propionyl-1,2,3,4-tetrahydroquinolin-4-yl)amino)phenyl)-1H-pyrazol-1-yl)ethyl)carbamoyl)benzyl)-4-oxo-4,5,6,7-tetrahydro-1H-indole-2-carboxylate]
12 | 0.04 | CCC(=O)N1c2ccccc2[C@H](Nc2ccc(-n3cc(CNC(=O)c4ccc(Cn5c(CC)cc6c5CCCC6=O)cc4)nn3)cc2)C[C@@H]1C [Compound 15f, 4-((2-Ethyl-4-oxo-4,5,6,7-tetrahydro-1H-indol-1-yl)methyl)-N-((1-(4-(((2S,4R)-2-methyl-1-propionyl-1,2,3,4-tetrahydroquinolin-4-yl)amino)phenyl)-1H-1,2,3-triazol-4-yl)methyl)benzamide]
13 | 2.32 | CCC(=O)N1c2ccccc2[C@H](Nc2ccc(C(=O)NCc3cn(-c4ccc(Cn5c(CC)cc6c5CCCC6=O)cc4)nn3)cc2)C[C@@H]1C [Compound 15h, N-((1-(4-((2-Ethyl-4-oxo-4,5,6,7-tetrahydro-1H-indol-1-yl)methyl)phenyl)-1H-1,2,3-triazol-4-yl)methyl)-4-(((2S,4R)-2-methyl-1-propionyl-1,2,3,4-tetrahydroquinolin-4-yl)amino)benzamide]

Row | Compound | IC90 [nM]
14 | CCC(=O)N1c2ccccc2[C@H](Nc2ccc(SCCNC(=O)c3ccc(C4=NCc5nnc(C)n5-c5sc(C)c(C)c54)cc3)cc2)C[C@@H]1C [Compound 14s, N-(2-((4-(((2S,4R)-2-Methyl-1-propionyl-1,2,3,4-tetrahydroquinolin-4-yl)amino)phenyl)thio)ethyl)-4-(2,3,9-trimethyl-6H-thieno[3,2-f][1,2,4]triazolo[4,3-a][1,4]diazepin-4-yl)benzamide] | 2.2
